How the values were obtained:
Assay type in all cases: in vivo, Balb/c mice
CS-induced ALI mice = experiment: CS-induced lung injury model: partial pressure of oxygen (PO2); conditions: CT-NA 10 and 30 mg/kg intragastric; 24 hrs after last CS exposure; p<0.01
Procedure: Specific pathogen-free (SPF) female Balb/c mice (22-28 g; aged 8 weeks) were purchased from Shanghai SIPPR-BK Experimental Animal Co., Ltd. […] Model preparation: The mice were randomly divided into 5 groups (12 mice in each group), which were the control group (the mice were exposed to fresh air), the saline group (the mice were exposed to cigarette smoke), dexamethasone (Dex) group (1 mg/kg) (the mice were exposed to cigarette smoke), CT-NA 10 mg/kg group and CT-NA 30 mg/kg group (the mice were exposed to cigarette smoke). According to the grouping, the mice were intragastrically administered saline, Dex and CT-NA, respectively. Thereafter, the mice were exposed to fresh air or cigarette smoke generated from 3R4F research-grade cigarettes (containing about 600 mg TPM/m^3 and 29.9 mg nicotine/m^3) in a cuboid plastic box (65×50x×45 cm). Ten cigarettes were burned every day for seven days. After one cigarette was burned, the next cigarette was ignited. The daily body weight and general condition of the mice were checked. 24 hrs after the last exposure to the cigarette smoke, the partial pressure of oxygen (PO2) of all mice was measured by the Moor VMS-OXY™ measuring instrument, which was used to measure the oxygenated/deoxygenated hemoglobin concentration and oxygen saturation (percentage) in the microcirculation at the wavelength range of 500 to 650 nm. […]

LPS-induced ALI mice = experiment: LPS-induced ALI model: pro-inflammatory cytokines and chemokines in BALF by ELISA; conditions: CT-NA 10 or 30 mg/kg, Dex 1 mg/kg, dose-dependent, P<0.05 or P<0.01
Procedure: (§1) Specific pathogen-free (SPF) Balb/c mice (♂/♀; 20-26 g; 8 weeks old) were purchased from Shanghai SIPPR-BK Experimental Animal Co., Ltd. Mice were kept in an isolated ventilated cage in an environment of 40-60% humidity, 24±2° C., and 12 hrs/12 hrs dark-light cycle, and had free access to food and water. The method for preparing the LPS-induced ALI model was simply described as follows. The mice were randomly divided into a control group (12 mice) and an LPS group (48 mice). The LPS group (48 mice) was further divided into four subgroups (12 mice in each subgroup). The unanaesthetized mice in the four subgroups of LPS were intragastrically administered with normal saline (NS), CT-NA at 10 mg/kg or 30 mg/kg, and Dex at 1 mg/kg, respectively. […] 24 hrs after LPS challenge, the oxygen saturation (SO2) of all mice was measured by a Moor VMS-OXY™ instrument which measured SO2 (%) in the microcirculation at the wavelength range of 500 to 650 nm. […]
The expression levels of pro-inflammatory cytokines (TNF-α, IL-1β, IL-6), and chemokines (KC, mouse IL-8 homolog) in the BALF supernatant were determined by using respective ELISA determination kits according to the instruction manual. After measurements of the optical density at 450 nm, the expression level was calculated via the standard curves.

[1] = tested on: NF-κB signalling pathway in the lung of LPS-induced ALI mice; experiment: Western blotting of NF-κB signalling pathway, lung tissue of ALI mice; conditions: CT-NA 10 mg/kg or 30 mg/kg
Procedure: as §1, with “respectively. One hour later, the mice were anesthetized with sodium pentobarbital (intraperitoneal injection at 40 mg/kg), and then subjected to intratracheal instillation of NS to control group and LPS (4 mg/kg) to all LPS subgroups. 12 hrs later, the unanaesthetized mice of the LPS group were intragastrically administered with NS, CT-NA at 10 mg/kg or 30 mg/kg, or Dex at 1 mg/kg, respectively (FIG. 16).” for “respectively.”

## CN([C@@H]1CCc2c(CC(=O)[O-])c3cccnc3n2C1)S(=O)(=O)c1ccc(F)cc1.[Na+] [Sodium salt hydrate]
CS-induced ALI mice
  partial pressure of oxygen (PO2): significantly elevated
LPS-induced ALI mice
  production of IL-1β, TNF-α, IL-6 and KC in BALF: effectively reduced
[1]
  degradation of IκBα and P65 induced by LPS: strongly reversed
[1]; dose-dependent
  LPS-induced IκBα and P65 activation: reduced
